According to paper PMC5327383, “Pneumococcal galactose catabolism is controlled by multiple regulators acting on pyruvate formate lyase” (Scientific Reports, 2017):
Counter-ions that a name gives are not always drawn.

Target: CcpA (Streptococcus pneumoniae, UniProt A0A0H2ZQ65)
Conditions: 10 mM; room temperature; raises DNA affinity; direct binding of formate not shown

CcpA, sequence (A0A0H2ZQ65 entry or part of it): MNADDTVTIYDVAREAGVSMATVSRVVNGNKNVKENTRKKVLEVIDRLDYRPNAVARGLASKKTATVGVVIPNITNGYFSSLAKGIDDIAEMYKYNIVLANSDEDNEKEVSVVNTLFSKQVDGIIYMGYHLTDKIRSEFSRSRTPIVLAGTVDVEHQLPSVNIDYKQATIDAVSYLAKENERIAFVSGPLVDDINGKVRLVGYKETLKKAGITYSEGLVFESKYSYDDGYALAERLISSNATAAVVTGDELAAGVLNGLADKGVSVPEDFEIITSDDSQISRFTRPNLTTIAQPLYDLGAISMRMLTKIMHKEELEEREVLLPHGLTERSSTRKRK

For `O=CO` [sodium formate], the “EMSA with pflB promoter DNA, protein preincubated with compound” value was “formate enhanced the binding of CcpA to PpflB”.
